From ChEMBL document CHEMBL5042527, “Neochrysosporazines: Precursor-Directed Biosynthesis Defines a Marine-Derived Fungal Natural Product P-Glycoprotein Inhibitory Pharmacophore” (J Med Chem, 2022)

test: Metabolic stability of the compound in human SW620/AD300 cells assessed as production of metabolite -Deacetylchrysosporazine J at 2.5 uM for 2 to 48 hrs; format: ADME, cell-based; conditions: sw620/ad300, 2.5 µM, time 2-48 hrs

Row | SMILES | Stability
1 | COc1c2c(cc3c1[C@H](c1ccccc1)[C@H]1C(=O)N4C[C@H](Cc5ccccc5)N(C(C)=O)C[C@@H]4[C@@H]31)OCO2 | Stable

test: Metabolic stability of the compound in human SW620/AD300 cells assessed as production of metabolite -Deacetylchrysosporazine F at 2.5 uM for 2 to 48 hrs; format: ADME, cell-based; conditions: sw620/ad300, 2.5 µM, time 2-48 hrs

Row | SMILES | Stability
2 | COc1cc(C[C@H]2CN3C(=O)[C@@H]4[C@@H](c5ccccc5)c5c(cc6c(c5OC)OCO6)[C@@H]4[C@H]3CN2C(C)=O)cc2c1OCO2 | Stable

test: Metabolic stability of the compound in human SW620/AD300 cells assessed as production of metabolite -Deacetylchrysosporazine B at 2.5 uM for 2 to 48 hrs; format: ADME, cell-based; conditions: sw620/ad300, 2.5 µM, time 2-48 hrs

Row | SMILES | Stability
3 | COc1cc([C@H]2c3ccccc3C(=O)N3C[C@H](C(=O)c4ccccc4)N(C(C)=O)C[C@H]23)cc2c1OCO2 | Stable

test: Cytotoxicity against human […] cells overexpressing P-glycoprotein measured after 48 hrs by MTT assay; format: functional, cell-based; conditions: not given

Row | SMILES | IC50 [µM]
4 | COc1cc(C[C@H]2CN3C(=O)/C(=C/c4ccccc4)[C@H](c4cc(OC)c5c(c4)OCO5)[C@H]3CN2C(C)=O)cc2c1OCO2 | > 30
5 | COc1cc([C@H]2c3ncccc3C(=O)N3C=CN(C(C)=O)C[C@H]23)cc2c1OCO2 | > 30
6 | COc1cc([C@H]2c3ccccc3C(=O)N3C[C@@H](C(=O)c4ccccc4)N(C(C)=O)C[C@H]23)cc(OC)c1O | > 30
7 | COc1cc([C@H]2c3ccccc3C(=O)N3C[C@H](C(=O)c4ccccc4)N(C(C)=O)C[C@H]23)cc(OC)c1O | > 30
8 | COc1cc([C@H]2c3ncccc3C(=O)N3C[C@H](Cc4ccccc4)N(C(C)=O)C[C@H]23)cc2c1OCO2 | > 30
9 | COc1cc(C[C@H]2CN(C(C)=O)[C@@H](Cc3ccccc3)CN2C(=O)c2cccnc2)cc2c1OCO2 | > 30
10 | COc1cc([C@H]2c3ncccc3C(=O)N3C[C@H](C(=O)c4ccccc4)N(C(C)=O)C[C@H]23)cc2c1OCO2 | > 30
11 | COc1cc([C@H]2/C(=C\c3ccc(O)cc3)C(=O)N3C[C@H](Cc4ccccc4)N(C(C)=O)C[C@H]23)cc2c1OCO2 | > 30
12 | C=C(c1ccccc1)[C@H]1CN2C(=O)c3ncccc3[C@H](c3cc(OC)c4c(c3)OCO4)[C@H]2CN1 | > 30
13 | COc1cc([C@H]2c3ccccc3C(=O)N3C=CN(C(C)=O)C[C@H]23)cc2c1OCO2 | > 30
14 | COc1cc(C[C@H]2CN3C(=O)[C@]4(O)[C@@H](c5ccccc5)c5c(cc6c(c5OC)OCO6)[C@@H]4[C@H]3CN2C(C)=O)cc2c1OCO2 | > 30
15 | COc1cc([C@H]2c3ccccc3C(=O)N3C[C@H](Cc4ccccc4)N(C(C)=O)C[C@H]23)cc2c1OCO2 | > 30
16 | CC(=O)N1C[C@H](Cc2ccccc2)N(C(=O)c2ccccc2)C[C@@H]1Cc1ccccc1 | > 30
17 | COc1cc(C[C@H]2CN(C(=O)/C=C/c3ccccc3)[C@@H](Cc3cc(OC)c4c(c3)OCO4)CN2C(C)=O)cc2c1OCO2 | > 30
18 | COc1cc([C@H]2c3cnccc3C(=O)N3C[C@H](Cc4ccccc4)N(C(C)=O)C[C@H]23)cc2c1OCO2 | > 30
19 | COc1c2c(cc3c1[C@H](c1ccccc1)[C@H]1C(=O)N4C[C@H](Cc5ccccc5)NC[C@@H]4[C@@H]31)OCO2 | > 30
20 | COC1=C[C@]2(C[C@H]3CN(C(C)=O)[C@@H](Cc4ccccc4)CN3C2=O)OC1=O | > 30
21 | COc1cc(C[C@H]2CN(C(C)=O)[C@@H](Cc3ccccc3)CN2C(=O)c2ccccn2)cc2c1OCO2 | > 30
22 | COc1cc([C@H]2c3cnccc3C(=O)N3C[C@@H](C(=O)c4ccccc4)N(C(C)=O)C[C@H]23)cc2c1OCO2 | > 30
23 | COc1c2c(cc3c1[C@H](c1ccccc1)[C@H]1C(=O)N4C[C@H](Cc5ccccc5)N(C(C)=O)C[C@@H]4[C@@H]31)OCO2 | > 30
24 | COc1cc([C@H]2c3cccnc3C(=O)N3C[C@@H](C(=O)c4ccccc4)N(C(C)=O)C[C@H]23)cc2c1OCO2 | > 30
25 | COc1cc([C@H]2/C(=C\c3ccccc3)C(=O)N3C[C@H](Cc4ccccc4)N(C(C)=O)C[C@H]23)cc2c1OCO2 | > 30
26 | COc1cc([C@H]2c3cccnc3C(=O)N3C[C@H](C(=O)c4ccccc4)NC[C@H]23)cc2c1OCO2 | > 30
27 | COc1cc(/C=C2/C(=O)N3C[C@H](Cc4ccccc4)N(C(C)=O)C[C@@H]3[C@H]2c2cc(OC)c3c(c2)OCO3)ccc1O | > 30
28 | C=C(c1ccccc1)[C@H]1CN2C(=O)c3ccncc3[C@H](c3cc(OC)c4c(c3)OCO4)[C@H]2CN1 | > 30
29 | COc1cc(C[C@H]2CN3C(=O)[C@@H]4[C@@H](c5ccccc5)c5c(cc6c(c5OC)OCO6)[C@@H]4[C@H]3CN2C(C)=O)cc2c1OCO2 | > 30
30 | COc1cc(C[C@H]2CN(C(C)=O)[C@@H](Cc3ccccc3)CN2C(=O)c2ccncc2)cc2c1OCO2 | > 30

Row | SMILES | IC50 [µM]
31 | COc1cc([C@H]2c3ccncc3C(=O)N3C=CN(C(C)=O)C[C@H]23)cc2c1OCO2 | > 30
32 | COc1cc(C[C@H]2CN(C(C)=O)[C@@H](Cc3ccccc3)CN2)cc(OC)c1O | > 30
33 | COc1cc([C@H]2c3cccnc3C(=O)N3C[C@H](Cc4ccccc4)N(C(C)=O)C[C@H]23)cc2c1OCO2 | > 30
34 | COc1cc(C[C@H]2CN(C(C)=O)[C@@H](Cc3ccccc3)CN2C(=O)/C=C/c2ccccc2)cc2c1OCO2 | > 30
35 | COc1cc([C@H]2c3cccnc3C(=O)N3C[C@@H](C(=O)c4ccccc4)NC[C@H]23)cc2c1OCO2 | > 30
36 | COc1cc(/C=C2/C(=O)N3C[C@H](Cc4cc(OC)c5c(c4)OCO5)N(C(C)=O)C[C@@H]3[C@H]2c2cc(OC)c3c(c2)OCO3)ccc1O | > 30
37 | COc1cc(C[C@H]2CN3C[C@@H]4[C@@H](c5ccccc5)c5c(cc6c(c5OC)OCO6)[C@@H]4[C@H]3CN2)cc2c1OCO2 | > 30
38 | COc1cc(C[C@H]2CN(C(C)=O)[C@@H](Cc3ccccc3)CN2C(=O)c2ccccc2)cc(OC)c1O | > 30
39 | COc1cc(C[C@H]2CN(C(=O)c3ccccc3)[C@@H](Cc3cc(OC)c4c(c3)OCO4)CN2C(C)=O)cc2c1OCO2 | > 30
40 | COc1cc([C@H]2c3cnccc3C(=O)N3C=CN(C(C)=O)C[C@H]23)cc2c1OCO2 | > 30
41 | COc1cc([C@H]2c3ccccc3C(=O)N3C[C@H](C(=O)c4ccccc4)N(C(C)=O)C[C@H]23)cc2c1OCO2 | > 30
42 | CC(=O)N1C[C@H](Cc2cc(O)c3c(c2)OCO3)N(C(=O)c2ccccc2)C[C@@H]1Cc1ccccc1 | > 30
43 | CC(=O)N1C[C@H](Cc2ccccc2)N(C(=O)/C=C/c2ccccc2)C[C@@H]1Cc1ccccc1 | > 30
44 | COc1cc([C@H]2c3cccnc3C(=O)N3C[C@H](C(=O)c4ccccc4)N(C(C)=O)C[C@H]23)cc2c1OCO2 | > 30
45 | COc1cc([C@H]2c3cnccc3C(=O)N3C[C@@H](C(=O)c4ccccc4)NC[C@H]23)cc2c1OCO2 | > 30
46 | COc1cc([C@@H]2[C@H]3CN(C(C)=O)[C@@H](Cc4ccccc4)CN3C(=O)[C@@]23O[C@H]3c2ccccc2)cc2c1OCO2 | > 30
47 | COc1cc(/C=C/C(=O)N2C[C@H](Cc3cc(OC)c4c(c3)OCO4)N(C(C)=O)C[C@@H]2Cc2cc(OC)c3c(c2)OCO3)ccc1O | > 30
48 | COc1cc(C[C@H]2CN3C(=O)[C@@]4(O[C@H]4c4ccccc4)[C@H](c4cc(OC)c5c(c4)OCO5)[C@H]3CN2C(C)=O)cc2c1OCO2 | > 30
49 | C=C(c1ccccc1)[C@H]1CN2C(=O)c3ccccc3[C@H](c3cc(OC)c4c(c3)OCO4)[C@H]2CN1 | > 30
50 | COc1cc(C[C@H]2CN3C(=O)/C(=C/c4ccc(O)cc4)[C@H](c4cc(OC)c5c(c4)OCO5)[C@H]3CN2C(C)=O)cc2c1OCO2 | > 30
51 | COc1cc([C@H]2c3ccncc3C(=O)N3C[C@H](Cc4ccccc4)N(C(C)=O)C[C@H]23)cc2c1OCO2 | > 30
52 | COc1cc([C@H]2c3ccccc3C(=O)N3C[C@H](C(=O)c4ccccc4)NC[C@H]23)cc2c1OCO2 | > 30
53 | COc1cc([C@H]2c3cnccc3C(=O)N3C[C@H](C(=O)c4ccccc4)N(C(C)=O)C[C@H]23)cc2c1OCO2 | > 30
54 | COc1c2c(cc3c1[C@H](c1ccccc1)[C@@]1(O)C(=O)N4C[C@H](Cc5ccccc5)N(C(C)=O)C[C@@H]4[C@@H]31)OCO2 | > 30
55 | COc1cc([C@H]2c3cnccc3C(=O)N3C[C@H](C(=O)c4ccccc4)NC[C@H]23)cc2c1OCO2 | > 30
56 | COc1cc([C@H]2c3cccnc3C(=O)N3C=CN(C(C)=O)C[C@H]23)cc2c1OCO2 | > 30

test: Metabolic stability of the compound in human SW620/AD300 cells assessed as production of metabolite -Deacetylchrysosporazine C at 2.5 uM for 2 to 48 hrs; format: ADME, cell-based; conditions: sw620/ad300, 2.5 µM, time 2-48 hrs

Row | SMILES | Stability
57 | COc1cc([C@H]2c3ccccc3C(=O)N3C[C@H](Cc4ccccc4)N(C(C)=O)C[C@H]23)cc2c1OCO2 | Stable
